Results on 2 compounds are retold here after patent US9458202B2, “Peptidomimetic macrocycles with improved properties” (Aileron Therapeutics, Inc., priority 2008, dated 2016).

One data set is described as follows: Figure 2. Set-up: AUCall: concentration or dose not given beside the values. The note with it: for C0 / half-life / MRT: Sprague-Dawley, rat, plasma, iv; for MRT: read-out: MRTinf_obs. The method, then:
Table printed on a drawing sheet, Figure 2
Footnotes: 2 mg/mL iv bolus in Sprague-Dawley rats (10 mg/kg) / * 0.6 mg/mL iv bolus in Sprague-Dawley rats (3 mg/kg)
The patent's description of the figure: FIG. 2 lists the in vivo half-lives of peptidomimetic macrocycles of the invention. Half-lives were measured in Sprague Dawley rats after one intravenous bolus injection at 0.6 mg/mL or 2 mg/mL of each unlabeled peptidomimetic macrocycle at a 3 mg/kg or 10 mg/kg dose, respectively. Three animals were used per compound and concentrations were determined by mass-spectrometric analysis of blood levels (plasma).
First reader's note: An asterisk before the peptide name marks dosing at 3 mg/kg (0.6 mg/mL) instead of 10 mg/kg (2 mg/mL).

A further data set can be described thus: circular dichroism. Set-up: unit not given here. To be noted: 20 mM phosphoric acid; pH 2.0; 5 °C; 0.05 mg/mL. A general note: Circular dichroism is the unequal absorption of left and right circularly polarised light.

Take `CC[C@H](C)[C@H](NC(C)=O)C(=O)N[C@@H](Cc1c[nH]c2ccccc12)C(=O)N[C@H](C(=O)N[C@@H](C)C(=O)N[C@@H](CCC(N)=O)C(=O)N[C@@H](C)C(=O)N[C@@H](CC(C)C)C(=O)N[C@@H](CCCNC(=N)N)C(=O)N[C@@]1(C)CCCC=CCCC[C@@](C)(C(=O)N[C@@H](Cc2ccccc2)C(=O)N[C@@H](CC(N)=O)C(=O)N[C@@H](C)C(=O)N[C@@H](Cc2ccc(O)cc2)C(=O)N[C@@H](Cc2ccc(O)cc2)C(=O)N[C@@H](C)C(=O)N[C@@H](CCCNC(=N)N)C(=O)N[C@@H](CCCNC(=N)N)C(N)=O)NC(=O)[C@H](CC(=O)O)NC(=O)CNC(=O)[C@H]([C@@H](C)CC)NC1=O)[C@@H](C)CC` [SP9]: in “Figure 2”, the “AUCall” value is 124448 ng·h/mL, the “Cl_obs” value worked out at 0.83 mL/min/kg, the C0 stood at 159 µg/mL and the half-life is 7.3 h. For the same compound, the MRT in the data set “Figure 2” worked out at 4.5 h. The helicity in “circular dichroism” was -14900.
As for Ac-QSQQTFSNLWRLLPQN-NH2 [*SP22], in the data set “Figure 2”, the “AUCall” value amounted to 75 ng·h/mL, the “Cl_obs” value worked out at 700 mL/min/kg, the C0 is 15.1 µg/mL and the half-life is below 0.1 h. For the same compound, the MRT in “Figure 2” was below 0.1 h. This compound also registered a helicity in “circular dichroism” of -646.

For orientation: half-life means the time in which the quantity being followed falls by half.
